Measurements from US12617762B2, “Carboxy derivatives with antiinflamatory properties” (Sitryx Therapeutics Limited, priority 2019, dated 2026).
Like-named read-outs stand apart in the source and are kept apart here.

Columns and labels:
[1] = Hepatocyte stability assay, human; format: in vitro ADME; conditions: human, hepatocytes; for hepatocyte CLint at 10 μM: Hepatocyte stability Clint; for half-life at 10 μM: Hepatocyte stability T½
Outline: (§1)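 Cells and buffer-only plates are preincubated 10 min at 37° C; 10 μM test compound is then added to hepatocytes (0.5×10^6 cells/mL) and sampled to 60 min. Aliquots are crashed into acetonitrile, spun, and measured by LC-MS/MS to calculate intrinsic clearance from the decline of parent.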

[2] = Hepatocyte stability assay, mouse; format: in vitro ADME; conditions: mouse, hepatocytes; for hepatocyte CLint at 10 μM: Hepatocyte stability Clint; for half-life at 10 μM: Hepatocyte stability T½
Outline: as §1

[3] = test system: NRF2 (nuclear factor erythroid 2-related factor 2); experiment: NRF2 +/-GSH activation assay (DiscoverX PathHunter NRF2 translocation kit, U2OS cells); format: cell-based; conditions: for NRF2 activation +GSH Emax / NRF2 activation −GSH Emax / −GSH Emax: normalised to DMF high control
Outline: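 U2OS PathHunter eXpress cells, 24 h post-plating, treated with compound ±GSH (+GSH arm: 30 min compound–GSH pre-incubation, 6 mM working GSH), then 6 h at 37 °C. NRF2 nuclear translocation read by enzyme-fragment-complementation chemiluminescence; % activation normalised to DMF high and untreated low controls.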

[4] = test system: IL-1β cytokine output from THP-1s; experiment: THP-1 AlphaLISA IL-1β cytokine inhibition assay; format: cell-based; conditions: Homo sapiens
Outline: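 THP-1 cells differentiated with PMA for 72 h, pre-incubated with compound 30 min, then LPS-primed 24 h and Nigericin-stimulated 1 h (37° C./5% CO2). Supernatant IL-1β measured by AlphaLISA; percentage inhibition normalised to +LPS (high) and −LPS (low) plate controls.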

[5] = test system: IL-6 cytokine output from THP-1s; experiment: THP-1 AlphaLISA IL-6 cytokine inhibition assay; format: cell-based; conditions: Homo sapiens, LPS then nigericin
Procedure: The cytokine inhibition profiles of compounds of formula (I) were determined in a differentiated THP-1 cell assay. All assays were performed in RPMI-1640 growth medium (Gibco), supplemented with 10% fetal bovine serum (FBS; Gibco), 1% penicillin-streptomycin and 1% sodium pyruvate unless specified otherwise. The IL-1β cytokine inhibition assay was run in a background of differentiated THP-1 cells as described below. All reagents described were from Sigma-Aldrich unless specified otherwise. Compounds were prepared as 10 mM DMSO stocks.
THP-1 cells were expanded as a suspension up to 80% confluence in appropriate growth medium. Cells were harvested, suspended, and treated with an appropriate concentration of phorbol 12-myristate 13-acetate (PMA) over a 72 hr period (37° C./5% CO2).
Following 72 hrs of THP-1 cell incubation, cellular medium was removed and replaced with fresh growth media containing 1% of FBS. Working concentrations of compounds were prepared separately in 10% FBS treated growth medium and pre-incubated with the cells for 30 minutes (37° C./5% CO2). Following the 30 minute compound pre-incubation, THP-1s were treated with an appropriate concentration of LPS and the cells were subsequently incubated for a 24 hr period (37° C./5% CO2). An appropriate final concentration of Nigericin was then dispensed into the THP-1 plates and incubated for 1 hour (37° C./5% CO2) before THP-1 supernatants were harvested and collected in separate polypropylene 96-well holding plates.
Reagents from an IL-1β and IL-6 commercial kit (Perkin Elmer) were prepared and run according to the manufacturer's instructions. Subsequently, fluorescence signal detection in a microplate reader was measured (EnVision® Multilabel Reader, Perkin Elmer).
Percentage inhibition was calculated per cytokine by normalising the sample data to the high and low controls used within each plate (+/− LPS respectively).

[6] = +GSH, 30 minute compound-GSH pre-incubation, read-out: NRF2 activation +GSH EC50
[7] = −GSH, U2OS PathHunter cells, 6 hours compound treatment, read-out: NRF2 activation −GSH EC50
[8] = THP-1, differentiated THP-1 cells, LPS then nigericin
[9] = −GSH, Table 5 exo vs endo comparison, read-out: −GSH EC50
[10] = −GSH, Table 5 exo vs endo comparison
[11] = THP-1, Table 3, head to head comparison of exo vs endo double bond compounds
[12] = THP-1, differentiated THP-1 cells

SMILES | hepatocyte CLint at 10 μM [1] | half-life at 10 μM [1] | hepatocyte CLint at 10 μM [2] | half-life at 10 μM [2] | EC50 [3, 6] | NRF2 activation +GSH Emax ([3]; +GSH) | EC50 [3, 7] | NRF2 activation −GSH Emax ([3]; −GSH) | IC50 [4, 8] | IC50 ([5]; differentiated THP-1 cells) | EC50 [3, 9] | −GSH Emax [3, 10] | IC50 [4, 11] | IC50 [5, 12]
C=C(Cc1noc(C2(c3ccc(Br)cc3)CC2)n1)C(=O)O [Example 89, 2-((5-(1-(4-bromophenyl)cyclopropyl)-1,2,4-oxadiazol-3-yl)methyl)acrylic acid] | 38 µL/min/1e6 cells | 41 min | 336 µL/min/1e6 cells | 5 min | 42.2 µM | 63% | 30.7 µM | 99% | 12.2 µM | 33.4 µM |  |  |  | 
C=C(Cc1nc(C2(c3ccc(Br)cc3)CC2)no1)C(=O)O [Example 50, 2-((3-(1-(4-bromophenyl)cyclopropyl)-1,2,4-oxadiazol-5-yl)methyl)acrylic acid] | 25 µL/min/1e6 cells | 53 min | 146 µL/min/1e6 cells | 9 min | 39.2 µM | 88% | 35.9 µM | 150% | 4.5 µM |  | 35.9 µM | 150% | 4.5 µM | 20.3 µM
C=C(Cc1nc(C2(c3ccc(SC(F)(F)F)cc3)CC2)no1)C(=O)O [Example 86, 2-((3-(1-(4-((trifluoromethyl)thio)phenyl)cyclopropyl)-1,2,4-oxadiazol-5-yl)methyl)acrylic acid] | 7 µL/min/1e6 cells | 235 min | 17 µL/min/1e6 cells | 103 min | 35 µM | 221% | 18 µM | 320% | 8.4 µM |  | 18 µM | 320% | 8.4 µM | 9.4 µM
C=C(Cc1nc(-c2ccc(C(F)(F)CCCC)cc2)no1)C(=O)O [Example 79, 2-((3-(4-(1,1-difluoropentyl)phenyl)-1,2,4-oxadiazol-5-yl)methyl)acrylic acid] | 147 µL/min/1e6 cells | 11 min | > 460 µL/min/1e6 cells | < 3 min | 2.1 µM | 181% | 1.8 µM | 271% | 6.7 µM |  |  |  |  | 2.2 µM
C=C(Cc1noc(C(F)(F)c2ccc(Cl)cc2)n1)C(=O)O [Example 84, 2-((5-((4-chlorophenyl)difluoromethyl)-1,2,4-oxadiazol-3-yl)methyl)acrylic acid] | 14 µL/min/1e6 cells | 115 min | 83 µL/min/1e6 cells | 21 min |  |  |  |  | 39 µM | 23.1 µM |  |  |  | 
C=C(Cc1nc(C2(c3cc(Cl)cc(Cl)c3)CC2)no1)C(=O)O [Example 67, 2-((3-(1-(3,5-dichlorophenyl)cyclopropyl)-1,2,4-oxadiazol-5-yl)methyl)acrylic acid] | 70 µL/min/1e6 cells | 23 min | 92 µL/min/1e6 cells | 13 min |  |  |  |  | 69.4 µM |  |  |  |  | 4.1 µM
C=C(Cc1nc(C2(c3ccc(C(F)(F)F)c(Cl)c3)CC2)no1)C(=O)O [Example 136, 2-((3-(1-(3-chloro-4-(trifluoromethyl)phenyl)cyclopropyl)-1,2,4-oxadiazol-5-yl)methyl)acrylic acid] | 44 µL/min/1e6 cells | 32 min | 79 µL/min/1e6 cells | 16 min |  |  |  |  | 2.9 µM | 3.9 µM |  |  |  | 
C=C(Cc1nc(Cc2ccc(OC(F)(F)C(F)F)cc2)no1)C(=O)O [Example 81, 2-((3-(4-(1,1,2,2-tetrafluoroethoxy)benzyl)-1,2,4-oxadiazol-5-yl)methyl)acrylic acid] | < 3 µL/min/1e6 cells | > 460 min | 94 µL/min/1e6 cells | 18 min |  |  |  |  | 22 µM |  |  |  |  | 12.8 µM
CCCCCCCCc1noc(/C=C(\C)C(=O)O)n1 [Example 166, (E)-2-methyl-3-(3-octyl-1,2,4-oxadiazol-5-yl)acrylic acid] | 260 µL/min/1e6 cells | 6 min | 204 µL/min/1e6 cells | 7 min |  |  |  |  | > 31.6 µM | 31.5 µM |  |  | > 31.6 µM | 
C=C(Cc1nc(C2(c3ccc(OC(F)(F)C(F)F)cc3)CC2)no1)C(=O)O [Example 82, 2-((3-(1-(4-(1,1,2,2-tetrafluoroethoxy)phenyl)cyclopropyl)-1,2,4-oxadiazol-5-yl)methyl)acrylic acid] | < 3 µL/min/1e6 cells | > 460 min | 30 µL/min/1e6 cells | 58 min |  |  |  |  | 14.5 µM |  |  |  |  | 20.7 µM
C=C(Cc1nc(-c2ccc(Cl)cc2)c(CCCC)o1)C(=O)O [Example 109, 2-((5-butyl-4-(4-chlorophenyl)oxazol-2-yl)methyl)acrylic acid] | 20 µL/min/1e6 cells | 79 min | 61 µL/min/1e6 cells | 28 min |  |  |  |  | > 31.6 µM |  |  |  |  | 10.6 µM
C=C(Cc1nc(C2(c3cc(F)c(Cl)c(F)c3)CC2)no1)C(=O)O [Example 135, 2-((3-(1-(4-chloro-3,5-difluorophenyl)cyclopropyl)-1,2,4-oxadiazol-5-yl)methyl)acrylic acid] | 31 µL/min/1e6 cells | 45 min | 159 µL/min/1e6 cells | 8 min |  |  |  |  | 13.2 µM | 17.9 µM |  |  |  | 
C=C(Cc1nc(C(F)(F)c2ccc(C(F)(F)F)cc2)no1)C(=O)O [Example 92, 2-((3-(difluoro(4-(trifluoromethyl)phenyl)methyl)-1,2,4-oxadiazol-5-yl)methyl)acrylic acid] | < 3 µL/min/1e6 cells | > 460 min | 23 µL/min/1e6 cells | 84 min |  |  |  |  | 6.7 µM |  |  |  |  | 19.9 µM
C=C(Cc1nc(CCCCCCCC)c(C)o1)C(=O)O [Example 107, 2-((5-methyl-4-octyloxazol-2-yl)methyl)acrylic acid] | 161 µL/min/1e6 cells | 8 min | > 460 µL/min/1e6 cells | < 3 min |  |  |  |  | 9.5 µM | 8.4 µM |  |  |  | 
